Measurements as given in patent publication US20240390374A1, “MOCETINOSTAT IN COMBINATION WITH CHEMOTHERAPY TO TREAT RHABDOMYOSARCOMA” (The Regents of the University of California, priority 2021, published 2024).

Experiments:
[1] = human, in vivo; cited from earlier work
[2] = system: Rhabdomyosarcoma cell lines; assay: IC50 for mocetinostat across individual cell lines from different sarcoma subtypes (FIG. 1); type: cell-based
P-gp = P-gp (Homo sapiens, UniProt P08183); conditions: cited from earlier work
solid tumors = conditions: three times per week, with gemcitabine; cited from earlier work
CYP2C9 = CYP2C9 (Homo sapiens, UniProt P11712); conditions: cited from earlier work
advanced solid tumors = conditions: cited from earlier work
[3] = system: follicular lymphoma and diffuse large B cell lymphoma; conditions: cited from earlier work
[4] = system: refractory and/or recurrent rhabdomyosarcoma; type: in vivo, human; conditions: dose escalation phase; orally 3 times weekly with vinorelbine 25 mg/m2 IV day 1, 8, 15 of 21 day cycles
Procedure: Methods: This is an investigator initiated Phase 1 single center, open-label, dose escalation/expansion clinical trial. A modified intent to treat approach is used for efficacy analysis for a target accrual of 20 subjects in the dose expansion cohort. Eligibility criteria include subjects >/=18 years old (yo) for the phase 1 dose escalation cohort and >/=12 years old for the phase 1 dose expansion cohort with a diagnosis of R/R RMS. Mocetinostat 40 mg, 70 mg or 90 mg was taken orally 3 times weekly with vinorelbine 25 mg/m2 IV on day 1,8, and 15 in 21 day cycles. PEG-filgrastim or biosimilar was added if subject experienced grade 3/4 neutropenia in a prior cycle. The maximum tolerated dose of mocetinostat in the dose escalation phase was 40 mg, which was selected as the dose for expansion cohort. Subjects were treated until disease progression by RECIST 1.1 or unacceptable toxicity.

[5] = system: CYP2E1, CYP3A, CYP2C8, CYP2C19; conditions: cited from earlier work
[6] = in vivo; cited from earlier work
[7] = cited from earlier work
[8] = orally three times per week for 2 of every 3 weeks

Sequence of CYP2C9 (P11712 whole entry): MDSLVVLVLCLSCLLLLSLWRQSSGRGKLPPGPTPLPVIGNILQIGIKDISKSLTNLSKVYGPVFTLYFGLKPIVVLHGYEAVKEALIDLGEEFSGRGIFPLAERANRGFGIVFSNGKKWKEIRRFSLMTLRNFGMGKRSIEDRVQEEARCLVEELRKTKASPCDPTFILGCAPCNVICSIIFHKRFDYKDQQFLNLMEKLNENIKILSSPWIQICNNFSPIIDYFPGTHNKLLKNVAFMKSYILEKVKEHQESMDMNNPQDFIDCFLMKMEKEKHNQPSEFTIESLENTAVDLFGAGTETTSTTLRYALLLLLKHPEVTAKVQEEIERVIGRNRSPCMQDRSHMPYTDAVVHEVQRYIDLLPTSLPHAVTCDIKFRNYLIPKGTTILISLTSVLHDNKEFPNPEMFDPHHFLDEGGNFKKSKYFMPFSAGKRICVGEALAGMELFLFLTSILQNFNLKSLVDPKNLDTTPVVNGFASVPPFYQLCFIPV
Sequence of P-gp (P08183 whole entry): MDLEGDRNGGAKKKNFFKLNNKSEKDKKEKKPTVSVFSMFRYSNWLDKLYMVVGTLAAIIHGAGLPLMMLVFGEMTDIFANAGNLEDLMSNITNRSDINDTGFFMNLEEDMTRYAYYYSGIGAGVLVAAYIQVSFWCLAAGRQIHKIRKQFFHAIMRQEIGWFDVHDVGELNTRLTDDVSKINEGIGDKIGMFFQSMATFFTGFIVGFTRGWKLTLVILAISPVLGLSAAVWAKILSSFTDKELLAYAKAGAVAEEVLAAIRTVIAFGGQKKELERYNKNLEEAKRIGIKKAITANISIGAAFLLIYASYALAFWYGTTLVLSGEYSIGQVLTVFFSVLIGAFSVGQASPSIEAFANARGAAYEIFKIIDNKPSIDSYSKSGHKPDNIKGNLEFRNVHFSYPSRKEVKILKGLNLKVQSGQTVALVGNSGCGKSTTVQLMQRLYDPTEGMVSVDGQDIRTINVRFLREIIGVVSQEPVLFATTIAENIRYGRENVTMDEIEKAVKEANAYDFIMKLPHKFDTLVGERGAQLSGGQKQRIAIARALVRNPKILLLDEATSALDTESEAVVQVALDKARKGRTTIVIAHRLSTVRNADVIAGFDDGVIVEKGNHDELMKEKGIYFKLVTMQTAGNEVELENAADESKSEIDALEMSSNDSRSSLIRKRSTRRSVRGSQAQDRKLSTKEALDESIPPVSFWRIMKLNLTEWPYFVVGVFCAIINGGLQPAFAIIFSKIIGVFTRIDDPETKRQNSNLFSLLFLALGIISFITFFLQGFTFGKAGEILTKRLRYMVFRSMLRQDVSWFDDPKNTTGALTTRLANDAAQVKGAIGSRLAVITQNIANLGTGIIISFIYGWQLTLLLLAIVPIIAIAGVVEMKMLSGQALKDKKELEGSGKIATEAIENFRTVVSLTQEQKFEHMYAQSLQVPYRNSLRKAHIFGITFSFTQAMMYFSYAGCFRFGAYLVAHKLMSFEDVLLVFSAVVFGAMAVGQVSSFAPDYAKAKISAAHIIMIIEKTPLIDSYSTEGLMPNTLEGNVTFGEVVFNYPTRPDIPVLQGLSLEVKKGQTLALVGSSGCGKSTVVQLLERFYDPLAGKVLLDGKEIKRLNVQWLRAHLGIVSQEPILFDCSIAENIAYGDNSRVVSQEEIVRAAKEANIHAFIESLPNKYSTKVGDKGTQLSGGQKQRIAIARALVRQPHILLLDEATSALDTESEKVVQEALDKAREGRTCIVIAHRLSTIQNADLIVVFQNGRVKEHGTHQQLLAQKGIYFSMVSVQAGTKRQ

Nc1ccccc1NC(=O)c1ccc(CNc2nccc(-c3cccnc3)n2)cc1 [mocetinostat]
Half-life of elimination [1]: about 10 hours
accumulation with repeated dosing [1]: little to no accumulation
IC50 [2]: < 100 nM
P-gp interaction (P-gp): a substrate and an inhibitor of P-gp
MTD/RP2D of mocetinostat (solid tumors): 90 mg
CYP2C9 inhibition (CYP2C9): strong CYP2C9 inhibitor
patients with dose limiting toxicities (DLTs) (advanced solid tumors; at the 45 mg/m2/day dose): 27%
PK interpatient variability (advanced solid tumors; effect of low pH beverages): interpatient variability which improved when mocetinostat was coadministered with low pH beverages
hematologic AEs (advanced solid tumors; human, in vivo): no hematologic AEs
MTD/RP2D as equivalent fixed dose (advanced solid tumors; [8]): about 90 mg/day
maximum tolerated dose (MTD)/recommended phase II dose (RP2D) (advanced solid tumors; [8]): 45 mg/m2/day
patients with pericardial events considered related to mocetinostat ([3]; 5 events: pericardial effusion, pericarditis, cardiac tamponade): four
Grade ≥3 treatment-related fatigue ([3]; 70-110 mg three times a week): 23.6%
Grade ≥3 treatment-related neutropenia ([3]; 70-110 mg three times a week): 15.3%
Grade ≥3 treatment-related thrombocytopenia ([3]; 70-110 mg three times a week): 12.5%
patients with Grade ≥3 treatment-related AEs ([3]; 72 patients, starting doses 70-110 mg three times a week, 4 week cycles): 56.9%
maximum tolerated dose of mocetinostat [4]: 40 mg
metabolizing enzymes [5]: metabolized by CYP2E1 and CYP3A and possibly by CYP2C8 and CYP2C19

CCC1=C[C@@H]2CN(C1)Cc1c([nH]c3ccccc13)[C@@](C(=O)OC)(c1cc3c(cc1OC)N(C)[C@H]1[C@@](O)(C(=O)OC)[C@H](OC(C)=O)[C@]4(CC)C=CCN5CC[C@]31[C@@H]54)C2 [vinorelbine, methyl (1R,9R,10S,11R,12R,19R)-11-acetyloxy-12-ethyl-4-[(12S,14R)-16-ethyl-12-methoxycarbonyl-1,10-diazatetracyclo[12.3.1.03,11.04,9]octadeca-3(11),4,6,8,15-pentaen-12-yl]-10-hydroxy-5-methoxy-8-methyl-8,16-diazapentacyclo[10.6.1.01,9.02,7.016,19]nonadeca-2,4,6,13-tetraene-10 carboxylate]
grade II-IV nausea and vomiting [6]: < 10%
grade III-IV neurotoxicity [6]: rare
stability of unopened vials ([7]; at temperatures up to 25° C. (77° F.)): up to 72 hours
time diluted vinorelbine may be used ([7]; normal room light, polypropylene syringes or polyvinyl chloride bags at 5-30° C.): up to 24 hours
